Like-named read-outs stand apart in the source and are kept apart here.
Experiments:
[1] = molecular target: LRRK2, WT (GST-tagged truncated LRRK2) (Homo sapiens, UniProt Q5S007); test: LRRK2 kinase assay (LanthaScreen), wild type; format: biochemical
Protocol: (§1) LRRK2 kinase activity was measured using Lantha Screen technology from Invitrogen. GST-tagged truncated LRRK2 from Invitrogen (Cat #PV4874) was incubated with a fluorescein-labeled peptide substrate based upon ezrin/radixin/moesin (ERM), also known as LRRKtide (Invitrogen cat #PR8976A), in the presence of a dose response of compound. Upon completion, the assay was stopped and detected with a terbium labeled anti-phospho-ERM antibody (Invitrogen, cat #PR8975A). […] Using Echo acoustic dispensing, 60 nL of compound was transferred to a low volume Corning 384-well assay plate. 3 μL of a working solution of substrate (200 nM LRRKtide, 2 mM ATP) prepared in assay buffer (50 mM HEPES, pH 7.5, 3 mM MgCl2, with 2 mM DTT and 0.01% Brij35 added fresh) was added to the 60 nL compound assay plate. The kinase reaction was started with 3 μL of a working solution of LRRK2 enzyme at a concentration of 4 μg/m L. The final reaction concentrations were 100 nM LRRKtide, 1 mM ATP, 2 μg/mL LRRK2 enzyme and a compound dose response with a top dose of 3 μM. The reaction was allowed to progress at room temperature for 30 minutes and then stopped with the addition of 6 μL of detection buffer (20 mM Tris pH 7.6, 0.01% NP-40, 6 mM EDTA with 2 nM terbium labeled antiphospho-ERM). […] All final concentrations of substrate ATP and enzyme were the same.

[2] = molecular target: mutant G2019S LRRK2 (Homo sapiens (Human), UniProt Q5S007, G2019S); test: LRRK2 kinase assay (LanthaScreen), G2019S mutant; format: biochemical; conditions: G2019S mutant LRRK2, read-out: LRRK2, G2019S IC50
Chain of mutant G2019S LRRK2 (Q5S007 whole entry G2019S): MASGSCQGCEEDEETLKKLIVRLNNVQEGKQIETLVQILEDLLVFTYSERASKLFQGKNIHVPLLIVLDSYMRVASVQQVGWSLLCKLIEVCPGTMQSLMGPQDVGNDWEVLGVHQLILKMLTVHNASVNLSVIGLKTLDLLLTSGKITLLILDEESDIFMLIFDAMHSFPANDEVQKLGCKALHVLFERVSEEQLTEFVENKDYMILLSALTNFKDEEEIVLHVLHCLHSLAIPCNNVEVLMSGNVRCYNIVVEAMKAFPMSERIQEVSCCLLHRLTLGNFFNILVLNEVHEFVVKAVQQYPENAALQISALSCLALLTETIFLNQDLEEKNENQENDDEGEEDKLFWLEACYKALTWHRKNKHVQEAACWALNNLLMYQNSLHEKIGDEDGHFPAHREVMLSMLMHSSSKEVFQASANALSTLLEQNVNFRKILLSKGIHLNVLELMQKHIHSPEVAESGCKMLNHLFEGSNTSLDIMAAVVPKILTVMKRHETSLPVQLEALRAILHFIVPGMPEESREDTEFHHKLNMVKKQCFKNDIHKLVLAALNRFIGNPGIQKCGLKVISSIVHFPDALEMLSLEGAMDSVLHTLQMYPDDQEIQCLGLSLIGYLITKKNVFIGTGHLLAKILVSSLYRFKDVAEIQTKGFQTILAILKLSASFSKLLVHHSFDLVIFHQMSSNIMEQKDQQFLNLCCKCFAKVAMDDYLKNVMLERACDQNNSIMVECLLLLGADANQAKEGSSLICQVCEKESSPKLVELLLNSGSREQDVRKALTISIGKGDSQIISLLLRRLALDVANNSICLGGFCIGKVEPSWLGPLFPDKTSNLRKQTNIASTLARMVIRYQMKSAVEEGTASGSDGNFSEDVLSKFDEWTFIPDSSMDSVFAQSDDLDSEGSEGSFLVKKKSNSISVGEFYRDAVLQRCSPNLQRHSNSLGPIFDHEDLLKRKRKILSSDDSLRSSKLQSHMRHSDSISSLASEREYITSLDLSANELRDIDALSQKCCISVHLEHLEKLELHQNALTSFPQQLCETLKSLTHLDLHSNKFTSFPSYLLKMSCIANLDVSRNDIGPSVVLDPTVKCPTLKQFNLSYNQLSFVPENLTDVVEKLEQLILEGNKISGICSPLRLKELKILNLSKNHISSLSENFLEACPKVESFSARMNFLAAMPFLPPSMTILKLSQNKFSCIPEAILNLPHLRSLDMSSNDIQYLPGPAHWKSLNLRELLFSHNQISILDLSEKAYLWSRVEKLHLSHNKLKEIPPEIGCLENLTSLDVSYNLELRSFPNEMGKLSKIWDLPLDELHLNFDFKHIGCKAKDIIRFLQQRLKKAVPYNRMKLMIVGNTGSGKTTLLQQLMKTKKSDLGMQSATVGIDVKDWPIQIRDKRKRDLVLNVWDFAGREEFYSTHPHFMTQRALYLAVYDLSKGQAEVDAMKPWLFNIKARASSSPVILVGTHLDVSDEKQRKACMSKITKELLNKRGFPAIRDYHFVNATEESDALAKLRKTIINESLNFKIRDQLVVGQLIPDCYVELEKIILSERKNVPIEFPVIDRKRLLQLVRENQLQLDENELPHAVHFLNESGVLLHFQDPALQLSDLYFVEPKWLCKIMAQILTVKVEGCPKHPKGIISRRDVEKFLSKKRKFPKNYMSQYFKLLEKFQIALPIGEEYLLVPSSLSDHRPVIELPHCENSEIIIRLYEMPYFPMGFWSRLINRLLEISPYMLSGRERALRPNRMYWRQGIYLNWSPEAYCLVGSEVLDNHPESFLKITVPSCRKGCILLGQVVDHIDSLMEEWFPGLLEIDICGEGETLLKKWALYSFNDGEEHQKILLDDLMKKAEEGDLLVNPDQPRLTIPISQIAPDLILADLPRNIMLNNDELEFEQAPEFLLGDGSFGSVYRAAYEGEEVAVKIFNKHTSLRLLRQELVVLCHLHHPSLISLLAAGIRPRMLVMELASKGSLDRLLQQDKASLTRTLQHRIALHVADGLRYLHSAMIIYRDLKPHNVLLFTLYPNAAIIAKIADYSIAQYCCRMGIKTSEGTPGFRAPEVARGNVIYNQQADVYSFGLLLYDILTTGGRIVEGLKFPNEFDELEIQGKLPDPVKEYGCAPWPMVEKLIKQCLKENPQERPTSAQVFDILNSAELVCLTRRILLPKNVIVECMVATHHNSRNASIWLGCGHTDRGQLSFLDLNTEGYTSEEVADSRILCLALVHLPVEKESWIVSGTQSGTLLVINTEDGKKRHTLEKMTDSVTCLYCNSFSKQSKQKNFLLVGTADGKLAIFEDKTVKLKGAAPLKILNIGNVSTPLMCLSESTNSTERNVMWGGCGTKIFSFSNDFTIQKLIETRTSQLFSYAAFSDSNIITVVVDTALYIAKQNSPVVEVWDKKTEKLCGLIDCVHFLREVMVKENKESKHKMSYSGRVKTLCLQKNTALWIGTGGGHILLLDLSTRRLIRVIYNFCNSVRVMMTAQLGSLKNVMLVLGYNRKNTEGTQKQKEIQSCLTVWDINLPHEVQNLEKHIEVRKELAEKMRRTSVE
Protocol: as §1

[3] = wild type LRRK2, LanthaScreen, LRRKtide substrate
[4] = LanthaScreen, LRRKtide substrate
[5] = LanthaScreen, LRRKtide substrate, 1 mM ATP

SMILES	IC50 [1, 3]	IC50 [1, 5]	further results
Cc1cc(Cc2nc3cnc4ccc(C#N)cc4c3n2[C@@H]2CC[C@H](F)C2)no1 (racemic) [Example 68, 1-[cis-3-fluorocyclopentyl]-2-[(5-methyl-1,2-oxazol-3-yl)methyl]-1H-imidazo[4,5-c]quinoline-8-carbonitrile]	–	–	IC50 ([1]; wild type LRRK2, data obtained using the formate salt of the Example): 8.32 nM; IC50 ([2]; data obtained using the formate salt of the Example): 12.3 nM
N#Cc1ccc2ncc3nc(Cc4nc5ccccc5o4)n([C@@H]4CC[C@H](F)C4)c3c2c1 (relative stereo) [Example 65, 2-(1,3-benzoxazol-2-ylmethyl)-1-[cis-3-fluorocyclopentyl]-1H-imidazo[4,5-c]quinoline-8-carbonitrile]	8.56 nM	–	IC50 [2, 4]: 6.33 nM
Cc1cnc(Cc2nc3cnc4ccc(Cl)cc4c3n2[C@@H]2CC[C@H](F)C2)cn1 (relative stereo) [Example 77, 8-chloro-1-[cis-3-fluorocyclopentyl]-2-[(5-methylpyrazin-2-yl)methyl]-1H-imidazo[4,5-c]quinoline]	13 nM	–	IC50 [2, 4]: 11.8 nM
Cc1cnn(Cc2nc3cnc4ccc(C#N)cc4c3n2C2CN(C)CC2(F)F)n1 (single isomer, unassigned) [Example 3, 1-(4,4-Difluoro-1-methylpyrrolidin-3-yl)-2-[(4-methyl-2H-1,2,3-triazol-2-yl)methyl]-1H-imidazo[4,5-c]quinoline-8-carbonitrile]	31.8 nM	–	–
Cc1cnn(Cc2nc3cnc4ccc(C#N)cc4c3n2C2CN(C)CC2(F)F)n1 (single isomer, unassigned) [Example 4, 1-(4,4-Difluoro-1-methylpyrrolidin-3-yl)-2-[(4-methyl-2H-1,2,3-triazol-2-yl)methyl]-1H-imidazo[4,5-c]quinoline-8-carbonitrile]	17.6 nM	–	IC50 [2, 4]: 3.31 nM
N#CCC1CC(n2c(C3CCC3)nc3cnc4ccc(Cl)cc4c32)CCO1 (single isomer, unassigned) [Example 11, [cis-4-(8-Chloro-2-cyclobutyl-1H-imidazo[4,5-c]quinolin-1-yl)tetrahydro-2H-pyran-2-yl]acetonitrile]	18 nM	–	IC50 [2, 4]: 5.06 nM
Cc1cnc(C(O)c2nc3cnc4ccc(Cl)cc4c3n2[C@@H]2CCO[C@H](C)C2)cn1 (single isomer, unassigned) [Example 14]	–	–	IC50 [1]: 14.2 nM; IC50 [2, 4]: 12.8 nM
CCc1nc2cnc3ccc(Cl)cc3c2n1[C@H]1CCO[C@@H](CC#N)C1 [Example 2, [(2R,4S)-4-(8-Chloro-2-ethyl-1H-imidazo[4,5-c]quinolin-1-yl)tetrahydro-2H-pyran-2-yl]acetonitrile]	1530 nM	–	–
N#CCC1CC(n2c(C3CCC3)nc3cnc4ccc(Cl)cc4c32)CCO1 (stereo not drawn) [Example 10, [cis-4-(8-Chloro-2-cyclobutyl-1H-imidazo[4,5-c]quinolin-1-yl)tetrahydro-2H-pyran-2-yl]acetonitrile]	1790 nM	–	–
FC1(F)COCCC1n1c(Cn2cncn2)nc2cnc3ccc(Cl)cc3c21 (centres unmarked) [Example 54, 8-chloro-1-(3,3-difluorotetrahydro-2H-pyran-4-yl)-2-(1H-1,2,4-triazol-1-ylmethyl)-1H-imidazo[4,5-c]quinoline]	10.3 nM	10.3 nM	–
Cc1nn2cc(Cc3nc4cnc5ccc(F)cc5c4n3C3CN(C)CC3(F)F)nc2s1 (centres unmarked) [Example 85, 1-(4,4-difluoro-1-methylpyrrolidin-3-yl)-8-fluoro-2-[(2-methylimidazo[2,1-b][1,3,4]thiadiazol-6-yl)methyl]-1H-imidazo[4,5-c]quinoline]	2.62 nM	–	–
CC(C#N)Cc1nc2cnc3ccc(Cl)cc3c2n1[C@@H]1CCO[C@H](C)C1 (stereo partly drawn) [diastereomer of Example 78, 3-{8-chloro-1-[(2R,4R)-2-methyltetrahydro-2H-pyran-4-yl]-1H-imidazo[4,5-c]quinolin-2-yl}-2-methylpropanenitrile]	–	37.2 nM	–
Cc1cn(Cc2nc3cnc4ccc(Cl)cc4c3n2C2CN(C)CC2(F)F)nn1 (stereo not drawn) [enantiomer of Example 48, 8-chloro-1-(4,4-difluoro-1-methylpyrrolidin-3-yl)-2-[(4-methyl-1H-1,2,3-triazol-1-yl)methyl]-1H-imidazo[4,5-c]quinoline]	–	145 nM	–

The next lines start with results.

IC50 [1, 3]	IC50 [1, 5]	SMILES	further results
–	1660 nM	Cc1nc2cnc3ccc(Cl)cc3c2n1[C@H]1CCO[C@@H](CC#N)C1 (relative stereo) [enantiomer of Example 31, [cis-4-(8-chloro-2-methyl-1H-imidazo[4,5-c]quinolin-1-yl)tetrahydro-2H-pyran-2-yl]acetonitrile]	–
–	631 nM	Cc1cc(Cc2nc3cnc4ccc(Cl)cc4c3n2[C@H]2CCO[C@@H](C(F)F)C2)no1 (relative stereo) [enantiomer of Example 59, 8-chloro-1-[cis-2-(difluoromethyl)tetrahydro-2H-pyran-4-yl]-2-[(5-methyl-1,2-oxazol-3-yl)methyl]-1H-imidazo[4,5-c]quinoline]	–
–	7.54 nM	Fc1ccc2ncc3nc(Cc4csnn4)n([C@H]4CC[C@@H](F)C4)c3c2c1 (relative stereo) [enantiomer of Example 79, 8-fluoro-1-[cis-3-fluorocyclopentyl]-2-(1,2,3-thiadiazol-4-ylmethyl)-1H-imidazo[4,5-c]quinoline]	–
–	473 nM	Cc1nc(Cc2nc3cnc4ccc(C#N)cc4c3n2C2CN(C)CC2(F)F)no1 (stereo not drawn) [enantiomer of Example 32, 1-(4,4-difluoro-1-methylpyrrolidin-3-yl)-2-[(5-methyl-1,2,4-oxadiazol-3-yl)methyl]-1H-imidazo[4,5-c]quinoline-8-carbonitrile]	–
–	97.3 nM	CN1CC(n2c(Cn3cc(C4CC4)nn3)nc3cnc4ccc(Cl)cc4c32)C(F)(F)C1 (stereo not drawn) [enantiomer of Example 47, 8-chloro-2-[(4-cyclopropyl-1H-1,2,3-triazol-1-yl)methyl]-1-(4,4-difluoro-1-methylpyrrolidin-3-yl)-1H-imidazo[4,5-c]quinoline]	–
–	46.2 nM	Cc1nnn(Cc2nc3cnc4ccc(Cl)cc4c3n2C2CN(C)CC2(F)F)n1 (stereo not drawn) [enantiomer of Example 49, 8-chloro-1-(4,4-difluoro-1-methylpyrrolidin-3-yl)-2-[(5-methyl-2H-tetrazol-2-yl)methyl]-1H-imidazo[4,5-c]quinoline]	–
–	181 nM	Cc1cnc(Cc2nc3cnc4ccc(Cl)cc4c3n2C2CN(C)CC2(F)F)cn1 (stereo not drawn) [enantiomer of Example 50, 8-chloro-1-(4,4-difluoro-1-methylpyrrolidin-3-yl)-2-[(5-methylpyrazin-2-yl)methyl]-1H-imidazo[4,5-c]quinoline]	–
–	229 nM	COCc1cn(Cc2nc3cnc4ccc(F)cc4c3n2C2CN(C)CC2(F)F)nn1 (stereo not drawn) [enantiomer of Example 53, 1-(4,4-difluoro-1-methylpyrrolidin-3-yl)-8-fluoro-2-{[4-(methoxymethyl)-1H-1,2,3-triazol-1-yl]methyl}-1H-imidazo[4,5-c]quinoline]	–
–	15.3 nM	COCc1cn(Cc2nc3cnc4ccc(Cl)cc4c3n2C2CCOCC2(F)F)nn1 (stereo not drawn) [enantiomer of Example 55, 8-chloro-1-(3,3-difluorotetrahydro-2H-pyran-4-yl)-2-{[4-(methoxymethyl)-1H-1,2,3-triazol-1-yl]methyl}-1H-imidazo[4,5-c]quinoline]	–
–	55.9 nM	Cc1nn2cc(Cc3nc4cnc5ccc(F)cc5c4n3C3CN(C)CC3(F)F)nc2s1 (stereo not drawn) [enantiomer of Example 85, 1-(4,4-difluoro-1-methylpyrrolidin-3-yl)-8-fluoro-2-[(2-methylimidazo[2,1-b][1,3,4]thiadiazol-6-yl)methyl]-1H-imidazo[4,5-c]quinoline]	–
–	271 nM	CN1CC(n2c(Cn3cnnn3)nc3cnc4ccc(Cl)cc4c32)C(F)(F)C1 (stereo not drawn) [enantiomer of Example 86, 8-chloro-1-(4,4-difluoro-1-methylpyrrolidin-3-yl)-2-(1H-tetrazol-1-ylmethyl)-1H-imidazo[4,5-c]quinoline]	–
–	37.8 nM	Cc1cnn(Cc2nc3cnc4ccc(Cl)cc4c3n2C2CN(C)CC2(F)F)n1 (stereo not drawn) [enantiomer of Example 87, 8-chloro-1-(4,4-difluoro-1-methylpyrrolidin-3-yl)-2-[(4-methyl-2H-1,2,3-triazol-2-yl)methyl]-1H-imidazo[4,5-c]quinoline]	–
–	261 nM	Cc1nc(Cc2nc3cnc4ccc(Cl)cc4c3n2C2CN(C)CC2(F)F)no1 (stereo not drawn) [enantiomer of Example 88, 8-chloro-1-(4,4-difluoro-1-methylpyrrolidin-3-yl)-2-[(5-methyl-1,2,4-oxadiazol-3-yl)methyl]-1H-imidazo[4,5-c]quinoline]	–
–	33.7 nM	Cc1nnc(Cc2nc3cnc4ccc(Cl)cc4c3n2C2CCOCC2(F)F)s1 (stereo not drawn) [enantiomer of Example 92, 8-chloro-1-(3,3-difluorotetrahydro-2H-pyran-4-yl)-2-[(5-methyl-1,3,4-thiadiazol-2-yl)methyl]-1H-imidazo[4,5-c]quinoline]	–
–	9.35 nM	FC1(F)COCCC1n1c(Cn2cc(C3CC3)nn2)nc2cnc3ccc(Cl)cc3c21 (stereo not drawn) [enantiomer of Example 94, 8-chloro-2-[(4-cyclopropyl-1H-1,2,3-triazol-1-yl)methyl]-1-(3,3-difluorotetrahydro-2H-pyran-4-yl)-1H-imidazo[4,5-c]quinoline]	–

Reference: patent publication US11312713B2, “Imidazo[4,5-C]quinoline derivatives as LRRK2 inhibitors” (Pfizer Inc., priority 2017, dated 2022)
